Source: patent US20120058974A1, “Composition comprising pesticide and benzotriazole UV absorbers” (BASF SE, priority 2009, published 2012)

What was measured:
[1] = Determination of the surface tension; assay type: physicochemical; settings: 25° C.; UV absorber concentrations from about 1 mg/l to 5,000 mg/l
Protocol: The surface tension (ST) of the UV absorbers 1C and 1F was determined at 25° C. at concentrations of the UV absorber of from about 1 mg/l to 5,000 mg/l (Table 4). The ST of water to air is, for comparison, 72.4 mN/m, the ST of commercial surfactants is about 30-35 mN/m. […] It was also shown that UV absorbers according to the invention are similar in surface activity to commercial surfactants.

[2] = UV-stabilizing effect: residual metaflumizone after exposure to light (Atlas Suntest), HPLC; assay type: physicochemical; settings: dried film; for Residual metaflumizone content (%) after 1 day: continuous light 1 day; for Residual metaflumizone content (%) after 1 week: continuous light seven days
Protocol: UV-Stabilizing Effect A formulation comprising 100 g/l of metaflumizone and 40 g/l of UV absorber was prepared as described in Example 2. The formulation was diluted with water such that an active content of 10 g/l (Table 3) or 1 g/l (Table 4) was obtained.
About 20 mg of the formulation thus prepared were placed on a microscope slide, allowed to dry for 30 minutes and then exposed to light for one or seven days continuously (Atlas Suntest CRT plus, “Outdoor” setting, irradiation corresponds to the same spectrum and intensity as normal sunlight at midday in summer). After the exposure time, the samples were dissolved in dimethyl sulfoxide. The residual level of metaflumizone was determined by means of quantitative HPLC (column: BEH C18 1.7 μm 2.1×100; elution with a gradient of acetonitrile/0.1% H3PO4 rising from 5/95:95/5). For comparison, each exposure series run included a sample without UV absorber (reference). Evaluation: 2 samples were treated as blank samples by immediately redissolving them after drying, without exposure to light, and determining the metaflumizone content. The resulting mean was set equal to 100% and the remaining samples were standardized against that.
A commercial formulation of metaflumizone (Alverde®) comprising 240 g/l of metaflumizone was diluted with water to an active content of 10 g/l. Various UV absorbers were added (Table 5) and analyzed as described under Example 4A.

[3] = Alverde® diluted to 10 g/l metaflumizone, UV absorber added
[4] = formulation 100 g/l metaflumizone + 40 g/l UV absorber diluted to 1 g/l metaflumizone
[5] = formulation 100 g/l metaflumizone + 40 g/l UV absorber diluted to 10 g/l metaflumizone

| Molecule | ST (surface tension) [1] | Residual metaflumizone content (%) after 1 day [2, 3] | Residual metaflumizone content (%) after 1 week [2, 3] | Residual metaflumizone content (%) after 1 day [2, 4] | Residual metaflumizone content (%) after 1 week [2, 4] | Residual metaflumizone content (%) after 1 day [2, 5] | Residual metaflumizone content (%) after 1 week [2, 5] |
| --- | --- | --- | --- | --- | --- | --- | --- |
| 3-(3-benzotriazol-2-yl-5-tert-butyl-4-hydroxyphenyl)propionic acid [tridecanol-EO18]ester [Example 1F] | 34.7 mN/m | – | – | – | – | – | – |
| COCCOCCOCCOCCOCCOCCOCCOC(=O)CCc1cc(-n2nc3ccccc3n2)c(O)c(C(C)(C)C)c1 [Example 1C, 3-(3-benzotriazol-2-yl-5-tert-butyl-4-hydroxyphenyl)propionic acid [Pluriol A350E]ester] | 39.5 mN/m | 34% | 1% | 45% | 16% | 89% | 55% |
| COCCOCCOCCOCCOCCOCCOCCOC(=O)CCc1cc(-n2nc3ccc(Cl)cc3n2)c(O)c(C(C)(C)C)c1 [Example 1J, 2-(5-chloro-2H-benzotriazol-2-yl)-6-tert-butyl-4-hydroxyphenylpropionic acid [Pluriol A350E]ester] | – | 46% | 30% | – | – | – | – |
| p-Aminobenzoic acid ethoxylate (45) [Uvinul ® P25] | 56.9 mN/m | – | – | – | – | – | – |
